In PubChem BioAssay (NCI):
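Following 48 hours of exposure in 96-well plates, responses at five concentrations were used to interpolate endpoints linearly. At the GI50, growth is halved. TGI: concentration producing complete growth inhibition.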

Experiments:
Assay in all cases: inhibition of tumour cell growth, NCI panel, 48 h
[1] = tested on: 786-0 renal
[2] = tested on: A498 renal
[3] = tested on: A549 NSCLC
[4] = tested on: ACHN renal
[5] = tested on: BT-549 breast
[6] = tested on: CAKI-1 renal
[7] = tested on: CCRF-CEM leukemia
[8] = tested on: COLO 205 colon
[9] = tested on: DU-145 prostate
[10] = tested on: HCC-2998 colon
[11] = tested on: HCT-116 colon
[12] = tested on: HCT-15 colon
[13] = tested on: HL-60(TB) leukemia
[14] = tested on: HOP-62 NSCLC
[15] = tested on: HOP-92 NSCLC
[16] = tested on: HS 578T breast
[17] = tested on: HT29 colon
[18] = tested on: IGROV1 ovarian
[19] = tested on: K-562 leukemia
[20] = tested on: KM12 colon
[21] = tested on: LOX IMVI melanoma
[22] = tested on: M14 melanoma
[23] = tested on: MALME-3M melanoma
[24] = tested on: MCF7 breast
[25] = tested on: MDA-MB-231 breast
[26] = tested on: MDA-MB-435
[27] = tested on: MOLT-4 leukemia
[28] = tested on: NCI-H226 lung
[29] = tested on: NCI-H23 lung
[30] = tested on: NCI-H460 lung
[31] = tested on: NCI-H522 lung
[32] = tested on: NCI/ADR-RES ovarian
[33] = tested on: OVCAR-3 ovarian
[34] = tested on: OVCAR-5 ovarian
[35] = tested on: OVCAR-8 ovarian
[36] = tested on: PC-3 prostate
[37] = tested on: RPMI-8226 leukemia
[38] = tested on: RXF 393 renal
[39] = tested on: SF-268 CNS
[40] = tested on: SF-295 CNS
[41] = tested on: SF-539 CNS
[42] = tested on: SK-MEL-2 melanoma
[43] = tested on: SK-MEL-28 melanoma
[44] = tested on: SK-MEL-5 melanoma
[45] = tested on: SK-OV-3 ovarian
[46] = tested on: SN12C renal
[47] = tested on: SNB-19 CNS
[48] = tested on: SNB-75 CNS
[49] = tested on: SR leukemia
[50] = tested on: SW-620 colon
[51] = tested on: T-47D breast
[52] = tested on: TK-10 renal
[53] = tested on: U251 CNS
[54] = tested on: UACC-257 melanoma
[55] = tested on: UACC-62 melanoma
[56] = tested on: UO-31 renal

CC(=O)Nc1ccc(S(=O)(=O)N2C(=O)CCC2C(=O)Nc2ccc(Br)cc2)cc1 (configuration not stated)
GI50 [1]: 2.2 µM | TGI [1]: 7.27 µM | GI50 [2]: 0.435 µM | TGI [2]: 4.71 µM | GI50 [3]: 1.6 µM | TGI [3]: 13.4 µM | GI50 [4]: 2.13 µM | TGI [4]: 12.2 µM | GI50 [5]: 1.79 µM | TGI [5]: 8.38 µM | GI50 [6]: 4.37 µM | TGI [6]: 17.7 µM | GI50 [7]: 1.49 µM | TGI [7]: 11 µM | GI50 [8]: 3.01 µM | TGI [8]: 11.7 µM | GI50 [9]: 3.25 µM | TGI [9]: 15.8 µM | GI50 [10]: 3.67 µM | TGI [10]: 22.1 µM | GI50 [11]: 1.74 µM | TGI [11]: > 100 µM | GI50 [12]: 1.72 µM | TGI [12]: 13 µM | GI50 [13]: 3.1 µM | TGI [13]: 19 µM | GI50 [14]: 2.4 µM | TGI [14]: 11.3 µM | GI50 [15]: 1.13 µM | TGI [15]: 5.25 µM | GI50 [16]: 3.05 µM | TGI [16]: 22.5 µM | GI50 [17]: 2.76 µM | TGI [17]: 14.7 µM | GI50 [18]: 2.28 µM | TGI [18]: 10.9 µM | GI50 [19]: 1.95 µM | TGI [19]: 10.7 µM | GI50 [20]: 1.82 µM | TGI [20]: 13.7 µM | GI50 [21]: 0.972 µM | TGI [21]: 7.39 µM | GI50 [22]: 2.92 µM | TGI [22]: 32.8 µM | GI50 [23]: 2.64 µM | TGI [23]: 9.17 µM | GI50 [24]: 1.48 µM | TGI [24]: 11 µM | GI50 [25]: 1.29 µM | TGI [25]: 6.94 µM | GI50 [26]: 2.72 µM | TGI [26]: 14.3 µM | GI50 [27]: 2.2 µM | TGI [27]: 10.3 µM | GI50 [28]: 2.26 µM | TGI [28]: 13.2 µM | GI50 [29]: 1.83 µM | TGI [29]: 16.6 µM | GI50 [30]: 2.63 µM | TGI [30]: 24.5 µM | GI50 [31]: 1.06 µM | TGI [31]: 3.6 µM | GI50 [32]: 2.47 µM | TGI [32]: > 100 µM | GI50 [33]: 2.03 µM | TGI [33]: 7.47 µM | GI50 [34]: 4.86 µM | TGI [34]: 21.7 µM | GI50 [35]: 2.6 µM | TGI [35]: 11.9 µM | GI50 [36]: 0.984 µM | TGI [36]: 12.1 µM | GI50 [37]: 0.806 µM | TGI [37]: 4.46 µM | GI50 [38]: 2.31 µM | TGI [38]: 6.28 µM | GI50 [39]: 2.76 µM | TGI [39]: 21.9 µM | GI50 [40]: 2.11 µM | TGI [40]: 12.1 µM | GI50 [41]: 2.45 µM | TGI [41]: 6.78 µM | GI50 [42]: 4.05 µM | TGI [42]: 17.8 µM | GI50 [43]: 3.49 µM | TGI [43]: 20.9 µM | GI50 [44]: 1.56 µM | TGI [44]: 4.87 µM | GI50 [45]: 3.58 µM | TGI [45]: 16.1 µM | GI50 [46]: 2.79 µM | TGI [46]: 36 µM | GI50 [47]: 2.38 µM | TGI [47]: 20.2 µM | GI50 [48]: 1.81 µM | TGI [48]: 6.24 µM | GI50 [49]: 1.41 µM | TGI [49]: 5.38 µM | GI50 [50]: 3.19 µM | TGI [50]: 27.6 µM | GI50 [51]: 0.532 µM | TGI [51]: 5.93 µM | GI50 [52]: 4.49 µM | TGI [52]: 15.4 µM | GI50 [53]: 1.89 µM | TGI [53]: 11.3 µM | GI50 [54]: 2.1 µM | TGI [54]: 9.5 µM | GI50 [55]: 0.648 µM | TGI [55]: 4.54 µM | GI50 [56]: 1.38 µM | TGI [56]: 8.21 µM
